Experimental findings from publication PMC12661400, “Oral bioavailable ITRI-148 degrades androgen receptor variants and overcomes antiandrogen resistance in advanced prostate cancer” (Neoplasia (New York, N.Y.), 2025) are described below.

Common to all, as to assay type: cell-based
One experiment has as its system CWR22Rv1. The experiment can be described thus: MTT cell viability, 7 days. The conditions noted are these: 168 h. The method, then:
(§1) Cells were seeded in 96-well plates and treated with drugs the next day. After 7 days, viability was assessed using MTT assay.
(§2) (C) Western blot analysis of AR and AR-V7 in C4-2B and C4-2B/MDVR cells after 48-hour ITRI-148 treatment. […] DEGs were determined relative to DMSO or pLKO.1 vector control. […] RPL13A was used for normalization. […] AR, AR-V7, and PSA expression in the drug-treated cells were detected across treatment timepoints.

For another experiment, the system named is LNCaP. The experiment is described as follows: MTT cell viability, 7 days. As to conditions: Homo sapiens, 168 h. As to the method: as §1, §2
A further experiment relates to VCaP. The experiment can be described thus: MTT cell viability, 7 days. As to conditions: Homo sapiens, 168 h. The method, then:
as §1, §2

In the next experiment the test system is LNCaP95. The experiment can be described thus: MTT cell viability, 7 days. The conditions noted are these: LNCaP-95, 168 h. The method, then:
as §1, §2

The subject of another experiment is AR. The experiment can be described thus: AR degradation by immunoblotting in CRPC cells. As to conditions: 10 μM. As to the method:
Cell lysis, Western blotting, and AR ubiquitination were performed as described in [17]. Primary antibodies: AR (Millipore 06-680), AR-V7 (RevMAb Biosciences 31-1109-00), PSA (ABclonal A4355), NKX3-1 (Cell Signaling Technology 92998), GAPDH (Cell Signaling Technology 2118) and β-Actin (Sigma-Aldrich A5441).
Fig. 1 ITRI-148 induces degradation of both AR and AR-V7 proteins in CRPC cells. […] (B) Expression of Flag-tagged AR-V7 in 293T cells following ITRI-148 treatment. Cells transiently expressing Flag-AR-V7 were pretreated with 50 μg/mL cycloheximide for 1 hour, then exposed to ITRI-148 at the indicated concentrations for 8 hours. AR-V7 expression was detected using an anti-Flag antibody. (C) Representative immunoblots showing AR protein levels in VCaP and CWR22Rv1 cells after 48 hours of ITRI-148 treatment. An N-terminal AR antibody was used to detect both full-length AR and LBD-truncated variants (AR-V(ΔLBD)) in CWR22Rv1 cells, while AR-V7 was detected using an AR-V7-specific antibody. DC₅₀ values were calculated from normalized band intensities, and Dₘₐₓ represents the maximal degradation achieved at 10 μM ITRI-148. (D) Immunofluorescence staining of AR after 24 or 48 hours of ITRI-148 treatment, detected using an N-terminal AR antibody. […] (F) Western blot analysis of ectopically expressed wild-type (WT) and mutant Myc-tagged AR in DU145 cells following 24 hours of treatment with 10 μM ITRI-148. Quantified AR levels are as indicated. TEXT PRINTED IN THE PICTURE: (C) ITRI-148: DC50 (μM) AR CWR22Rv1: 1.23 ± 1.86; DC50 (μM) AR VCaP: 0.05 ± 0.03; DC50 (μM) AR-V7 CWR22Rv1: 1.20 ± 0.92; DC50 (μM) AR-V7 VCaP: 0.02 ± 0.02; Dmax (%) AR CWR22Rv1: 65.02 ± 19.91; Dmax (%) AR VCaP: 80.49 ± 5.61; Dmax (%) AR-V7 CWR22Rv1: 72.10 ± 3.15; Dmax (%) AR-V7 VCaP: 91.36 ± 2.05
On the technique in general: In western blotting, separated proteins are transferred to a membrane and probed.

The IC50 is the concentration that gives 50% inhibition. Higher therefore signals lower potency. On to `N#Cc1ccc(O[C@H]2CC[C@H](NC(=O)c3ccc(N4CCC(CN5CCN(c6cc7c(cc6F)C(=O)N(C6CCC(=O)NC6=O)C7=O)CC5)CC4)nn3)CC2)cc1Cl` (some centres unmarked) [ARV-110, reference compound], for which the IC50 in the experiment with CWR22Rv1 was above 10 µM; with LNCaP it was 0.74 µM; in the experiment with VCaP, above 10 µM; with LNCaP95, above 10 µM.

For the compound `CN1C(=O)CCC(N2C(=O)c3cccc(NCC(=O)N4CCC(N5CCC(C#Cc6ccc(C7CCN(C8=Nn9c(nnc9C(F)(F)F)CC8)CC7)cc6)CC5)CC4)c3C2=O)C1=O` (centres unmarked) [inactive analog of ITRI-148], the “degradation of the AR proteins (western blot)” value in the experiment with AR is listed as “failed to degrade the AR proteins”.
